Experimental data: patent US20260262643A1, “HERBICIDAL BENZOXAZINES” (FMC CORPORATION, priority 2022, published 2026)

Tests used:
barnyardgrass [1] = experiment: Test C preemergence; format: in vivo, Echinochloa crusgalli; conditions: 0 to 100 scale (0 no effect, 100 complete control)
How it was run: (§1)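 Visual injury ratings on a 0–100 scale (100 = complete control) were made against untreated controls 10 days after treatment in the greenhouse. Compounds, formulated with surfactant in non-phytotoxic solvent, were sprayed on soil preemergence or onto one- to two-leaf plants 2–10 cm tall postemergence.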

pigweed, palmer [2] = experiment: Test C preemergence; format: in vivo, Amaranthus palmeri; conditions: 0 to 100 scale (0 no effect, 100 complete control)
How it was run: as §1

corn [3] = experiment: Test C preemergence; format: in vivo, Zea mays; conditions: 0 to 100 scale (0 no effect, 100 complete control)
How it was run: as §1

ryegrass, Italian [4] = experiment: Test C postemergence; format: in vivo, Lolium multiflorum; conditions: 10 days
How it was run: as §1

ragweed [5] = experiment: Test C preemergence; format: in vivo, Ambrosia artemisiifolia; conditions: 0 to 100 scale (0 no effect, 100 complete control)
How it was run: as §1

wheat [6] = experiment: Test C preemergence; format: in vivo, Triticum aestivum; conditions: 0 to 100 scale (0 no effect, 100 complete control)
How it was run: as §1

ragweed [7] = experiment: Test C postemergence; format: in vivo, Ambrosia artemisiifolia; conditions: 10 days
How it was run: as §1

blackgrass [8] = experiment: Test C postemergence; format: in vivo, Alopecurus myosuroides; conditions: 10 days
How it was run: as §1

kochia [9] = experiment: Test C preemergence; format: in vivo, Bassia scoparia; conditions: 0 to 100 scale (0 no effect, 100 complete control)
How it was run: as §1

barnyardgrass [10] = experiment: Test D flooded paddy test; format: in vivo, Echinochloa crus-galli; conditions: 250 g ai/ha, applied to paddy water, visual rating after 13 to 14 days, scale 0 to 100 (0 no effect, 100 complete control)
How it was run: (§2)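 2-leaf plants; flood 3 cm above soil; compound dosed into paddy water; greenhouse 13–14 d; visual rating vs controls, 0–100 (100 = complete control); dash = not tested.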

oat, wild [11] = experiment: Test C postemergence; format: in vivo, Avena fatua; conditions: 10 days
How it was run: as §1

wheat [12] = experiment: Test C postemergence; format: in vivo, Triticum aestivum; conditions: 10 days
How it was run: as §1

galium = experiment: Test C postemergence; format: in vivo, Galium aparine; conditions: 125 g ai/ha, postemergence, 10 days; 0 to 100 scale, 0 no effect, 100 complete control
How it was run: as §1

barnyardgrass [13] = experiment: Test C postemergence; format: in vivo, Echinochloa crusgalli; conditions: 10 days
How it was run: as §1

corn [14] = experiment: Test C postemergence; format: in vivo, Zea mays; conditions: 10 days
How it was run: as §1

green foxtail [15] = experiment: Test C postemergence; format: in vivo, Setaria viridis; conditions: 10 days
How it was run: as §1

rice = experiment: Test D flooded paddy test; format: in vivo, Oryza sativa; conditions: 250 g ai/ha, applied to paddy water, visual rating after 13 to 14 days, scale 0 to 100 (0 no effect, 100 complete control)
How it was run: as §2

ducksalad = experiment: Test D flooded paddy test; format: in vivo, Heteranthera limosa; conditions: 250 g ai/ha, applied to paddy water, visual rating after 13 to 14 days, scale 0 to 100 (0 no effect, 100 complete control)
How it was run: as §2

ryegrass, Italian [16] = experiment: Test C preemergence; format: in vivo, Lolium multiflorum; conditions: 0 to 100 scale (0 no effect, 100 complete control)
How it was run: as §1

horseweed = experiment: Test C postemergence; format: in vivo, Erigeron canadensis; conditions: 10 days
How it was run: as §1

blackgrass [17] = experiment: Test C preemergence; format: in vivo, Alopecurus myosuroides; conditions: 0 to 100 scale (0 no effect, 100 complete control)
How it was run: as §1

oat, wild [18] = experiment: Test C preemergence; format: in vivo, Avena fatua; conditions: 0 to 100 scale (0 no effect, 100 complete control)
How it was run: as §1

sedge, umbrella = experiment: Test D flooded paddy test; format: in vivo, Cyperus difformis; conditions: 250 g ai/ha, applied to paddy water, visual rating after 13 to 14 days, scale 0 to 100 (0 no effect, 100 complete control)
How it was run: as §2

soybean [19] = experiment: Test C preemergence; format: in vivo, Glycine max; conditions: 0 to 100 scale (0 no effect, 100 complete control)
How it was run: as §1

green foxtail [20] = experiment: Test C preemergence; format: in vivo, Setaria viridis; conditions: 0 to 100 scale (0 no effect, 100 complete control)
How it was run: as §1

soybean [21] = experiment: Test C postemergence; format: in vivo, Glycine max; conditions: 10 days
How it was run: as §1

kochia [22] = experiment: Test C postemergence; format: in vivo, Bassia scoparia; conditions: 10 days
How it was run: as §1

pigweed, palmer [23] = experiment: Test C postemergence; format: in vivo, Amaranthus palmeri; conditions: 10 days
How it was run: as §1

[24] = Preemergence, 500 g ai/ha, visual rating after 10 days
[25] = Test C, preemergence, 125 g ai/ha
[26] = 125 g ai/ha, postemergence, 0 to 100 scale, 0 no effect, 100 complete control
[27] = Postemergence, 500 g ai/ha, visual 0 to 100 scale (0 no effect, 100 complete control)

Cc1ccc(-n2cnc(C[S+](C)[O-])n2)cc1C(=O)N1C[C@H](C)Oc2c(Cl)cccc21 (stereo partly drawn) [Compound 224]
20: Plant response rating, Corn (corn [3]; [24]) | Plant response rating, Wheat (wheat [12]; [26]) | Plant response rating, Foxtail, Green (green foxtail [15]; [26]) | Blackgrass plant response rating (blackgrass [17]; [25])
15: Plant response rating, Rice (Flood) (rice)
100: Plant response rating, Pigweed, Palmer (pigweed, palmer [2]; [24]) | Plant response rating, Ryegrass, Italian (ryegrass, Italian [4]; [27]) | Plant response rating, Galium (galium) | Plant response rating, Soybean (soybean [19]; [24]) | Plant response rating, Foxtail, Green (green foxtail [20]; [24]) | Foxtail, Green plant response rating (green foxtail [20]; [25]) | Plant response rating, Soybean (soybean [21]; [26]) | Plant response rating, Soybean (soybean [21]; [27])
80: Plant response rating, Ryegrass, Italian (ryegrass, Italian [16]; [24])
90: Plant response rating, Barnyardgrass (barnyardgrass [1]; [24]) | Pigweed, Palmer plant response rating (pigweed, palmer [2]; [25]) | Plant response rating, Corn (corn [14]; [27]) | Plant response rating, Oat, Wild (oat, wild [18]; [24]) | Plant response rating, Kochia (kochia [22]; [26]) | Plant response rating, Kochia (kochia [22]; [27]) | Plant response rating, Pigweed, Palmer (pigweed, palmer [23]; [26]) | Plant response rating, Pigweed, Palmer (pigweed, palmer [23]; [27])
95: Plant response rating, Ducksalad (Flood) (ducksalad)
70: Plant response rating, Ragweed (ragweed [7]; [27]) | Plant response rating, Blackgrass (blackgrass [8]; [27]) | Plant response rating, Kochia (kochia [9]; [24]) | Plant response rating, Oat, Wild (oat, wild [11]; [27]) | Plant response rating, Foxtail, Green (green foxtail [15]; [27]) | Ryegrass, Italian plant response rating (ryegrass, Italian [16]; [25]) | Plant response rating, Blackgrass (blackgrass [17]; [24])
50: Plant response rating, Ryegrass, Italian (ryegrass, Italian [4]; [26]) | Plant response rating, Wheat (wheat [6]; [24]) | Plant response rating, Ragweed (ragweed [7]; [26]) | Plant response rating, Oat, Wild (oat, wild [11]; [26]) | Plant response rating, Barnyardgrass (barnyardgrass [13]; [27]) | Plant response rating, Corn (corn [14]; [26]) | Plant response rating, Horseweed (horseweed; [27])
0: Corn plant response rating (corn [3]; [25]) | Ragweed plant response rating (ragweed [5]; [25]) | Wheat plant response rating (wheat [6]; [25])
60: Plant response rating, Wheat (wheat [12]; [27]) | Soybean plant response rating (soybean [19]; [25])
40: Barnyardgrass plant response rating (barnyardgrass [1]; [25]) | Plant response rating, Ragweed (ragweed [5]; [24]) | Kochia plant response rating (kochia [9]; [25])
30: Plant response rating, Blackgrass (blackgrass [8]; [26]) | Plant response rating, Horseweed (horseweed; [26]) | Oat, Wild plant response rating (oat, wild [18]; [25])
98: Plant response rating, Sedge, Umbrella (Flood) (sedge, umbrella)
10: Plant response rating, Barnyardgrass (Flood) (barnyardgrass [10]) | Plant response rating, Barnyardgrass (barnyardgrass [13]; [26])
